In US20100004159A1, “SUBSTITUTED IMIDAZOLONE DERIVATIVES, PREPARATIONS AND USES” (GENFIT, priority 2006, published 2010):

SMILES | melting point
CCCCC1=NC(c2ccccc2)C(=O)N1Cc1ccc(C(=O)c2cccc(OC(C)(C)C(=O)O)c2)cc1 (stereo not drawn) [Compound 15, 2-butyl-1-[[4-[(3-((1-carboxy-1,1-dimethylmethyl)oxy)phenyl)carbonyl]phenyl]methyl]-4-phenyl-1H-imidazol-5(4H)-one] | 115 to 120 °C
CCCCC1=NC2(CCCC2)C(=O)N1Cc1ccc(-c2cc(OC(C)(C)C(=O)O)ccc2Br)cc1 [Compound 12, 1-[(6′-bromo-3′-((1-carboxy-1,1-dimethylmethyl)oxy)biphenyl-4-yl)methyl]-2-butyl-4-spirocyclopentyl-1H-imidazol-5(4H)-one] | 174 to 176 °C
CCCCC1=NC(C)(C)C(=O)N1Cc1ccc(C(=O)c2cccc(OC(C)(C)C(=O)O)c2)cc1 [Compound 14, 2-butyl-1-[[4-[(3-((1-carboxyl-1,1-dimethylmethyl)oxy)phenyl)carbonyl]phenyl]methyl]-4,4-dimethyl-1H-imidazol-5(4H)-one] | 167 to 169 °C
CCCCC1=NC2(CCCCC2)C(=O)N1Cc1ccc(-c2cccc(OC(C(=O)O)C(C)C)c2)cc1 (stereo not drawn) [Compound 55, 2-butyl-1-[(3′-((1-carboxy-1-(1,1-dimethylmethyl)methyl)oxy)-biphenyl-4-yl)methyl]-4-spirocyclohexyl-1H-imidazol-5(4H)-one] | 105 °C
CCCCC1=NC2(CCCCC2)C(=O)N1Cc1ccc(-c2cc(OC(C(=O)O)C(C)C)ccc2F)cc1 (stereo not drawn) [Compound 59, 2-butyl-1-[(3′-((1-carboxy-1-(1,1-dimethylmethyl)-methyl)oxy)-6′-fluoro-biphenyl-4-yl)methyl]-4-spirocyclohexyl-1H-imidazol-5(4H)-one] | 95 °C
CCCCC1=NC2(CCCCC2)C(=O)N1Cc1ccc(-c2cc(OC(C)C(=O)O)ccc2F)cc1 (stereo not drawn) [Compound 57, 2-butyl-1-[(3′-((1-carboxy-1-methylmethyl)oxy)-6′-fluoro-biphenyl-4-yl)methyl]-4-spirocyclohexyl-1H-imidazol-5(4H)-one] | 96 °C
CCCCC1=NC(c2ccccc2)C(=O)N1Cc1ccc(-c2cc(Br)ccc2OC(C)(C)C(=O)O)cc1 (stereo not drawn) [Compound 26, 1-[(5′-bromo-2′-((1-carboxy-1,1-dimethylmethyl)oxy)biphenyl-4-yl)methyl]-2-butyl-4-phenyl-1H-imidazol-5(4H)-one] | 199 to 201 °C
CCCCC1=NC2(CCCCC2)C(=O)N1Cc1ccc(-c2cccc(OCC(=O)O)c2)cc1 [Compound 52, 2-butyl-1-[(3′-((1-carboxymethyl)oxy)biphenyl-4-yl)methyl]-4-spirocyclohexyl-1H-imidazol-5(4H)-one] | 82 to 85 °C
CC(C)CC1=NC2(CCCC2)C(=O)N1Cc1ccc(-c2cccc(OC(C)(C)C(=O)O)c2)cc1 [Compound 27, 1-[(3′-((1-carboxy-1,1-dimethylmethyl)oxy)biphenyl-4-yl)methyl]-2-(2-methyl)propyl-4-spirocyclopentyl-1H-imidazol-5(4H)-one] | 213 to 216 °C

Further lines, results first:

melting point | SMILES
65 °C | CCCCC1=NC(CC)(CC)C(=O)N1Cc1ccc(-c2cc(OC(C(=O)O)C(C)C)ccc2F)cc1 (stereo not drawn) [Compound 68, 2-butyl-1-[(3′-((1-carboxy-1-(1,1-dimethylmethyl)methyl)oxy)-6′-fluoro-biphenyl-4-yl)methyl]-4,4-diethyl-1H-imidazol-5(4H)one]
186 °C | CCCCC1=NC(CC)(CC)C(=O)N1Cc1ccc(-c2cccc(OC(C)C(=O)O)c2)cc1 (stereo not drawn) [Compound 66, 2-butyl-1-[(3′-((1-carboxy-1-methylmethyl)oxy)biphenyl-4-yl)methyl]-4,4-diethyl-1H-imidazol-5(4H)one]
< 60 °C | CCCCC1=NC2(CCCC2)C(=O)N1Cc1ccc(-c2cc(OC(C)(C)C(=O)O)ccc2CCC)cc1 [Compound 76, 2-butyl-1-[(3′-((1-carboxy-1,1-dimethylmethyl)oxy)-6′-propyl-biphenyl-4-yl)methyl]-4-spirocyclopentyl-1H-imidazol-5(4H)-one]
81 °C | CCCCC1=NC2(CCCC2)C(=O)N1Cc1ccc(-c2cc(OC(C(=O)O)C(C)C)ccc2CCC)cc1 (stereo not drawn) [Compound 86, 2-butyl-1-[(3′-((1-carboxy-1-(1,1-dimethylmethyl)methyl)oxy)-6′-propyl-biphenyl-4-yl)methyl]-4-spirocyclopentyl-1H-imidazol-5(4H)-one]
76 °C | CCCCC1=NC2(CCCC2)C(=O)N1Cc1ccc(-c2cc(OCC(=O)O)ccc2CCC)cc1 [Compound 84, 2-butyl-1-[(3′-((1-carboxymethyl)oxy)-6′-propyl-biphenyl-4-yl)methyl]-4-spirocyclopentyl-1H-imidazol-5(4H)-one]
< 50 °C | CCCCC1=NC2(CCCC2)C(=O)N1Cc1ccc(-c2ccc([N+](=O)[O-])c(OC(C)(C)C(=O)O)c2)cc1 [Compound 95, 2-butyl-1-[(3′-((1-carboxy-1,1-dimethylmethyl)oxy)-4′-nitro-biphenyl-4-yl)methyl]-4-spirocyclopentyl-1H-imidazol-5(4H)-one]
167 °C | CCCCC1=NC2(CCCC2)C(=O)N1Cc1cccc(-c2ccccc2OC(C)(C)C(=O)O)c1 [Compound 75, 2-butyl-1-[(2′-((1-carboxy-1,1-dimethylmethyl)oxy)biphenyl-3-yl)methyl]-4-spirocyclopentyl-1H-imidazol-5(4H)-one]
140 °C | CCCCC1=NC2(CCCCC2)C(=O)N1Cc1ccc(-c2cccc(OC(C)(C)C(=O)O)c2)c(C)c1 [Compound 72]
74 °C | CCCCC1=NC2(CCCC2)C(=O)N1Cc1ccc(-c2cc(OC(CC)C(=O)O)ccc2CCC)cc1 (stereo not drawn) [Compound 85, 2-butyl-1-[(3′-((1-carboxy-1-ethylmethyl)oxy)-6′-propyl-biphenyl-4-yl)methyl]-4-spirocyclopentyl-1H-imidazol-5(4H)-one]
